Experimental findings from a melting point compilation (Tetko et al.; mined from patent text by program, amines drawn as free bases though some values may be those of a salt) are described below.

The structures appear in SMILES notation.

As for `CCOC(=O)C(=O)c1cc(Cl)c(C)cc1NC(=O)OC(C)(C)C`, the melting point (usually the temperature, or range, at which the solid turns liquid) turned out to be 111 °C. Take `Cc1cc([N+](=O)[O-])cc(C(=O)NC(C)C)c1NC(=O)c1cc(C(F)(F)F)nn1-c1ncccc1Cl`: the melting point lay within 170 to 172 °C. On to `CN(C)c1ccc2sc(S(N)(=O)=O)cc2c1`, for which the melting point lay within 197 to 199 °C. On to `Cc1cc(C(C)(C)CO)c(Cl)nn1`, for which the melting point fell in the range of 151 to 153 °C.

As to `O=C(O)COc1cc(Cl)ccc1C(=O)NCc1cccc(F)c1`, the melting point was found to be 155 °C. For `Cc1ncc(O)c(=O)[nH]1` the value was over 300 °C; for `Cc1ncnc2c(NC(=O)c3c(Cl)cccc3Cl)cccc12`, 223 to 225 °C; for `CC(=O)NCC1CN(c2ccc(N3CCC(O)(C#N)C(C)(C)C3)c(F)c2)C(=O)O1` (stereo not given), 65 to 68 °C.

As for `COc1ccc(-c2nnn(-c3ccc(C(F)(F)F)cc3F)c2Cl)c(Cl)c1`, the melting point lay within 95.8 to 97.5 °C. Molecule `CCCC(=O)c1c[nH]c2c(N3C(=O)c4ccccc4C3=O)cccc2c1=O` came in with a melting point of 318 to 320 °C. In turn, `CSc1ccc(NC(=O)C2C(=O)N(c3ccccc3)N=C2C)cc1` (stereo not given) registered a melting point of 196 to 199 °C. `CC(C)(C)c1nc(C=CC(COc2ccccc2)=NO)nc(C(C)(C)C)c1O` returned a melting point of 130 to 135 °C. For `CC=CCn1c(C)c(C)c2cnnc(OCc3c(F)cccc3F)c21` the value was 85 to 94 °C; for `N#Cc1ccc(OCc2cccc(F)c2)cc1`, 104 to 105 °C. Next, `Cc1oc(-c2ccccc2)nc1CCOc1ccc(CCCC2OC(=O)NC2=O)cn1` (stereo not given): 169 to 171 °C. For `CCn1c(=O)n(N(Cc2ccccc2)Cc2ccccc2)c(=O)c2cc(F)c(F)cc21`, the melting point is 133 to 135 °C. `COc1ccc2c(c1)Sc1cc(C#N)ccc1N2` showed a melting point of 198 to 199 °C.

Regarding `CCCCCCCCCCCCNC(=O)c1cc(-c2ccc(OC)cc2)c(OCC(=O)O)c(-c2cccc(Cl)c2)c1`, the melting point lay in the range of 114 to 117 °C. For `CCCCCCCc1ccc(NC2=NCCS2)cc1` the value was 81 to 82 °C. Consider `CC(=O)c1ccc2c(c1)C=CC(=O)CO2`, for which the melting point was in the range of 92 to 93 °C.

Take `COc1ccc(N(CCC(=O)NCC(=O)O)C(=O)c2ccc(Cl)cc2)cc1`: the melting point lay in the range of 185 to 187 °C. For `O=C1C=C(c2ccc(Cl)c(S(=O)(=O)N3CCCC3)c2)OC1` the value was 108 to 111 °C; for `CCOC(=O)COc1ccc2c(c1)CC(CNC(=O)OC(C)(C)C)C2` (stereo not given), 56 to 63 °C; for `O=C(O)c1ccc(C(F)(F)F)c(N2CCOCC2)n1`, 116 to 117 °C. Consider `CCCNC(=O)CP(=O)(O)O`, for which the melting point lay in the range of 155 to 160 °C. The molecule `CC(C)CC1(CCCCN2CCN(c3ccccn3)CC2)C(=O)Nc2ccccc21` (stereo not given) gave a melting point of 158 to 159 °C. The molecule `C=Cc1ccc2c3ccc(C=C)cc3n(CC(CC)CCCC)c2c1` (stereo not given) had a melting point of 59 to 60 °C. Next, `O=c1ccn(CCOCc2ccccc2)c(C(O)c2ccccc2)c1OCc1ccccc1` (stereo not given): 154 to 155 °C; `C=CCc1cc(C(N)=NO)ccc1O`: 144 °C. For `O=C(c1ccc(Br)cc1)N1CCN(CCCN2CCN(C(=O)c3ccc(Br)cc3)CC2)CC1` the value was 170 to 173 °C; for `CCOC(=O)c1ccc(C(F)(F)F)c(N)c1`, 38 to 39 °C; for `CN(C)C=CC(=O)c1cccc(N(C)C(=O)C2CCC2)c1`, 117 to 119 °C. With `COc1ccc2c(c1OC)Oc1cccc3cncc-2c13`, the melting point lay in the range of 195 to 196 °C.

Regarding `O=C(c1ccc(-c2cccc3ccccc23)nc1)N1Cc2cccn2Cc2ccccc21`, the melting point was in the range of 155 to 158 °C. With `CCc1cc2c(c(Sc3ccccc3)cc(=O)n2Cc2ccc(C(=O)O)cc2)c(CC)n1`, the melting point is 260 to 262 °C.

Molecule `Cc1nn(C(C)C)cc1C(=O)NC(C#N)c1cccs1` (stereo not given) returned a melting point of 140 to 142 °C.

Molecule `CCCCCCCCCCCCCc1cc(C(=O)OCCC)c[nH]1` gave a melting point of 51 to 52 °C. In the case of `O=C(O)c1cc(F)c2cccnc2c1O`, the melting point lay in the range of 277 to 279 °C. Regarding `CCCCCCCCCCCCC(C)COc1ccc(C(C)=O)o1` (stereo not given), the melting point lay within 45 to 47 °C. Next, `COc1cc(C(=O)Nc2nnn[nH]2)nc(-c2ccc(N(C)C)cc2)c1`: 261 to 263 °C. In the case of `COc1cc(COc2nc(-c3ccccc3)ncc2CO)ccc1OCc1nc(-c2ccco2)oc1C`, the melting point fell in the range of 150 to 151 °C. Turning to `O=C(CC(=O)c1ccccc1)Nc1cc(Cl)c(Cl)cc1[N+](=O)[O-]`, the melting point was in the range of 177 to 179 °C.

The molecule `CN(C)CCN(C)CC(=O)N1c2ccccc2N(C)C(=O)c2cnc(-c3ccccc3)nc21` yielded a melting point of 125 °C. `COc1ccc(C(=O)NNC(=O)c2occ(-c3ccccc3)c2-c2ccccc2)cc1NC(=O)OC(C)(C)C` showed a melting point of 137 to 141 °C. Regarding `CCCn1cnc(C(N)=O)c1NC(=S)NC(=O)c1ccccc1`, the melting point fell in the range of 163 to 164 °C. Next, `C=C(C)C(=O)Oc1ccc2c(c1)C(=O)c1ccccc1C2=O`: 184 to 186 °C; `CCc1ccc(C(=O)Oc2ccc(C(=O)O)cc2)cc1C12CC3CC(CC(C3)C1)C2`: 239 to 241 °C; `COc1ccc(N2C(=O)C3=C(SCCO3)C2O)nn1` (stereo not given): 165 °C. The molecule `CCC(=O)c1cc(Cl)c(O)c(Cl)c1` came in with a melting point of 50 to 52 °C. On to `CCCC(=O)c1cc(-c2ccc(C)cc2)no1`, for which the melting point lay within 86 to 87 °C. Molecule `COc1cc(/C=C/CO)ccc1OCc1csc(-c2ccccc2)n1` gave a melting point of 71 to 72 °C. For `CN1C(C)(C)CC(OC(=O)N=NC(=O)OC2CC(C)(C)N(C)C(C)(C)C2)CC1(C)C` the value was 135 to 137 °C; for `Cc1ccoc1C(=O)Nc1ccc(-n2nc(C(F)(F)F)cc2C(F)(F)F)cc1`, 119 to 120 °C; for `Cc1nc(N2CCCCC2)ccc1N1CCCn2c1nc1c(Cl)ccc(C(OC(F)F)C(F)(F)F)c12` (stereo not given), 164 to 167 °C. As for `CCOc1cc(C(CS(C)(=O)=O)N2C(=O)c3cccc(Cc4ccc[nH]4)c3C2=O)ccc1OC` (stereo not given), the melting point lay in the range of 80 to 82 °C. In turn, `O=C(NC(Cc1ccc(OCc2ccccc2)cc1)C(=O)O)c1cc2cc(-c3ccc(Cl)cc3)ccc2[nH]c1=O` (stereo not given) yielded a melting point of 298 to 299 °C.

`CC(=O)Nc1ccc(C[C@H](NC(=O)N(CCOC(C)=O)CCc2ccccc2)C(=O)NCCN(C)C)cc1` registered a melting point of 87 to 100 °C. For `CCCCOc1ccc(C(=O)N[C@@H]2CCc3cccc(N4CCN(C)CC4)c3C2)cc1`, the melting point was 190 to 191 °C. Regarding `Cc1cc(CCCCCCCOc2ccc(C3=NCCO3)cc2)on1`, the melting point fell in the range of 89 to 90 °C.

Turning to `CC(C)c1c2n(c(=O)c3ccccc13)CCCS2`, the melting point lay in the range of 123 to 124 °C.

With `O=C(O)[C@@H]1CCc2ccc(O)cc2O1`, the melting point lay in the range of 77 to 79 °C. `CCCCCCCCOC(=O)N(C[C@H](O)[C@@H](O)[C@H](O)[C@H](O)CO)C(C)CC` (stereo not given in full) yielded a melting point of 101 °C.

In turn, `CC(=O)Nc1ccc2c(c1)N1CCCN=C1S2` showed a melting point of 178 °C. Turning to `CC(C)(C)c1ccc(CN2CCN(c3ccccc3)CC2)o1`, the melting point was determined as 48 °C. On to `COC(=O)CCC(C)C1CCC2C3CCC4CCCCC4(C)C3CCC12C` (stereo not given), for which the melting point came to 87 °C. With `CC1(C)CC(N2CCCC2)=CC(=C(C#N)S(C)(=O)=O)C1`, the melting point lay in the range of 260 to 261 °C.

Molecule `O=C(O)CCCN(C(=O)c1ccccc1O)C(c1ccccc1)c1ccccc1` had a melting point of 162 to 163 °C. In turn, `O=C(Nc1ccc(-n2nc(C(F)(F)F)cc2C(F)(F)F)nc1)c1cc(F)c(F)cc1Cl` registered a melting point of 113 to 116 °C.

In the case of `CS(=O)(=O)N1CCCn2c(nc3c(N)nc4cc(-c5cccnc5)ccc4c32)C1`, the melting point came to 302 °C. In the case of `CCCCOCCOC(=O)NCCCCCCNC(=O)OCCOCCCC`, the melting point was in the range of 64 to 66 °C.

`CC(=O)Nc1ncc(SCC(=O)O)s1` had a melting point of 210 °C.

`CCCCN(C)C(=O)c1ccc(S(=O)(=O)CCCn2c(CCC)nc3c(N)nc(C)c(C)c32)cc1` returned a melting point of 127 to 129 °C. Consider `O=C1NCCC[C@@H]1NS(=O)(=O)c1ccccc1F`, for which the melting point is 180 to 183 °C. `C=CCOn1c(=O)[nH]c2cc(F)c(F)cc2c1=O` displayed a melting point of 220 to 221 °C. For `CC1CNc2c(C#N)cnn2C1c1cc(Cl)ccc1Cl` (stereo not given) the value was 184 to 185 °C; for `CCCNC(=S)NCCC1Cc2ccc(-c3ccc(=O)[nH]n3)cc2C1` (stereo not given), 155 to 157 °C.

The molecule `CNc1nc(C(C)c2ccc(-c3ccccc3)c(F)c2)c(C(=O)O)s1` (stereo not given) yielded a melting point of 133 to 134 °C. Molecule `OC1(CN2c3ccccc3Sc3ccccc32)CN2CCC1CC2` (stereo not given) yielded a melting point of 127 to 130 °C. `CCN(CC)C(=O)c1cc2ccsc2c(-c2ccccc2Cl)n1` displayed a melting point of 86 °C.

In turn, `O=C(NCCCc1ccccc1)c1ccccc1NCc1ccncc1` returned a melting point of 117 °C. As for `CC(C)Oc1cc(-n2c(Cl)nc(C(F)(F)F)cc2=O)c(F)cc1Br`, the melting point was 102 °C.

Molecule `CCCCCCCCCCCC(CC(=O)C(CCCCCC)C(=O)OC)OC1CCCCO1` (stereo not given) came in with a melting point of 37 to 38 °C. Regarding `O=C(O)c1ccc2c(c1)S(=O)(=O)c1ccc([N+](=O)[O-])cc1C2=O`, the melting point was over 360 °C.

The molecule `CCC(=O)N(C(=O)CC)c1cc(-c2c(-c3cccc(C)c3)nc3cccnn23)ccn1` registered a melting point of 210 to 211 °C. Next, `Cc1c(-c2ccncc2)sc(-c2ccncc2)c1CF`: 148 °C. For `O=C1N(Cc2cccc(C(F)(F)F)n2)c2ccccc2C12COc1cc3c(cc12)OCCO3` (stereo not given) the value was 195 to 196 °C; for `CC(=O)OC1CSC(Oc2cccnc2Br)C(OC(C)=O)C1OC(C)=O` (stereo not given), 161 °C; for `CC(C)(C)c1ccc(S(=O)(=O)C=CSc2ccccc2)cc1`, 258 °C. `CNC(Cc1ccccc1NC(=O)C(C)(C)C)c1ccsc1` (stereo not given) showed a melting point of 81 to 84 °C. In turn, `COC(=O)c1cc(CC#N)cc(Cc2nc3c(F)c(F)cc(F)c3s2)c1` gave a melting point of 130 to 132 °C.
